The text below walks through data of US10414739B2, “Compounds as inhibitors of the YAP/TAZ-TEAD interaction and their use in the treatment of malignant mesothelioma” (INVENTIVA, priority 2015, dated 2019).

As usually defined, the melting point is the temperature, or range, at which the solid turns liquid. The IC50 is the concentration that inhibits the measured activity by half. Low readings indicate greater potency, high ones weaker potency. What is called inhibition is the drop in the measured response relative to a control, in per cent. A high value points to a response far below the control.

Counter-ions that a name gives are not always drawn.

Data set [1] addresses T1, YAP-TEAD interaction (human YAP2-His6 (50-114) / human TEAD1-GST (209-426)) (Homo sapiens, UniProt P28347).
T1 construct: GST-TEAD1 (209-426) produced in E. coli; made in house; host or cells: E. coli
Briefly: YAP-TEAD AlphaLISA assay. The format is binding. The conditions noted are these: for Emax: 2 h, maximal % inhibition, read-out: Max Act.; for Emax / IC50: YAP-TEAD AlphaLISA; for IC50: 2 h equilibration at room temperature. The method, then:
YAP-TEAD AlphaLISA Assay for IC50 Value Determination.
YAP-TEAD binding and inhibition was assessed by monitoring the engagement of YAP2 peptide (human YAP2-His6 (50-114) produced in E. coli) with TEAD (human TEAD1-GST (GST-TEAD1 (209-426) produced in E. coli) using the AlphaLisa technology (Perkin-Elmer). Specifically, in a 384 well (Axygen) 5 μl of compounds were dispensed in 100% DMSO following a semi log serial dilution, with a top concentration of […] (10 concentrations). A ‘3 partners solution’ was prepared by mixing AlphaScreen Glutathione Donor beads 15 μg/ml (PerkinElmer), Anti-6×His AlphaLisA Acceptor beads 15 μg/ml (PerkinElmer) and Human YAP2 9 nM in 100 mM NaCl, 25 mM Hepes, 0.1% BSA, 0.5% NoNidet®P40 buffer. In the 384 assay plate (Proxiplate, Perkin-Elmer)) 2 μl of compound at each concentration, 6 μl of buffer, 6 μl of hTEAD1-GST 9 nM and 6 μl of ‘3 partner solution’ were mixed. After 2 h equilibration at room temperature in the dark the plates were read on an Envision instrument (Excitation @ 680 nm/Emission @ 570 nm, Perkin Elmer).
Results were expressed as % inhibition=100×((HighControl−Cpd)/(HighControl−LowControl)), were High control is the maximum response obtained with all components and Low control is the basal response obtained with all components without GST-Tead1.
Cpd is the response obtained for test compounds.
IC50 (half maximal inhibitory concentration) was determined by fitting the concentration response curves using a 3-parameter curve fit equation and determining concentration corresponding to 50% inhibition.
(In general: Bead proximity is the source of the signal in Alpha formats.)

For data set [2], the system named is P53 / SV40 large T antigen (AgT) interaction in HEK293 cells. Briefly: Counter-screening protein-protein interaction transactivation assay (P53+AgT). The format is cell-based. The conditions noted are these: HEK293, same conditions as TEAD-GAL4 assay. The method, then: (§1) To identify inhibitors of YAP-TEAD interaction, a transient transactivation assays was carried out into HEK293 cell line (HEK293 GripTite™ 293 MSR (Invitrogen R795-07)) using plasmids containing the full length TEAD1 sequences, the full length YAP mutant (S127A, S397A) and a luciferase gene reporter. All expression constructs were performed into pSG5 backbone plasmid in which the SV40 promoter was replaced by the CMV promoter. The TEAD1 construct was prepared by cloning the full length human TEAD1 cDNA in fusion with the Gal4 DNA Binding Domain (AA 1-148) into pSG5_CMV to create the TEAD1(FL)_hum_pSG5Gal4_CMV. The full length YAP mutant (S127A, S397A) was also cloned into pSG5_CMV to create the YAP(FL)_hum_pSG5_mutS127A_S397A_CMV. The reporter plasmid GAL4(5×RE)_TK(−105/+56)_pGL3-Basic contains 5 copies of the GAL4 responsive element (5′-TCGGAGGACAGTACTCC-3′) upstream of the thymidine kinase (TK) promoter (−105/+56) inserted in a pGL3-Basic vector. To evaluate the selectivity of our compounds in blocking the YAP-TEAD interaction, a counter-screening protein-protein interaction transactivation assays was also established. Briefly, two other expression plasmids, the pBD-P53 which express the P53 (AA 72-390) in fusion with Gal4 and the pAD-SV40T which express the SV40 large T antigen (AA 84-708,AgT), were created. HEK293 cells were seeded at 5×10^4 cells/well in 96 well plates (assay plates) in DMEM medium containing 4.5 g/L D-glucose, 10% high inactivated (HI) fetal bovine serum 1% Glutamax, 1% non-essential amino acid and 1% sodium pyruvate and 0.5% penicillin/streptomycin 37° C. in a humidified atmosphere of 8% CO2. […] Twenty-four hours later, the luciferase activity was determined after addition of 100 μl of Steady Glo™ luciferase assay system (Promega E2550) according to the manufacturer's directions. Luciferase activity in cell extracts is measured by reading luminescence using the Envision device.

For another data set, the system named is SW620 cell line. Kind of data set: Cell proliferation in YAP-independent cell line (EdU). The class given is cell-based. The protocol: The tumor cell growth inhibitory activity of the YAP-TEAD interaction inhibitors was evaluated in NCI-H2052 mesothelioma cell line harboring a NF2 mutation. This cell line was selected based on its mutational status and the ability of a siRNA directed against YAP, TAZ or TEAD1-4 to inhibit cell proliferation. The nuclear localization of YAP at confluence was also taken into account. Based on these observations we were able to classify several “YAP dependent cells” where YAP is clearly nuclear and in which a cell growth inhibition is observed by using siRNA (NCI-H2052, SKOV-3, ACHN, A549) and the “YAP independent cells” where YAP is preferentially located in the cytoplasm and in which no inhibition of cell growth is observed by using a siRNA (SW620, Met-5a). […] After one day growth in the starvation medium, cells were incubated with compounds. The starting concentration was 30 μM and serial dilutions in DMSO and medium were performed until […] to achieve a final DMSO concentration of 0.5%. The cells were then allowed to grow for 3 days, and then, EdU (Invitrogen, Molecular Probe) was added in each well at a final concentration of 10 μM and the cells were returned to the incubator for additional 24 h. Starvation medium was removed and 100 μl of PFA 4% containing Hoechst dye was adding in each well to fix the cells. Plates were then incubated at room temperature for 15 minutes, washed twice with PBS and the cells were permeabilized by adding 100 μl per well of triton-100 containing 0.3% BSA. After 20 minutes cells were washed with PBS and the EdU detection was performed according to the instructions of the manufacturer. Image acquisition was performed using the ImageXpress Micro and analysed using the MetaXpress software (Molecular Device). Results were expressed as a percent of inhibition (%) of the cell proliferation values obtained with 0.5% DMSO treatment alone. The cellular response was determined by fitting the concentration response curves using a 3 parameter curve fit equation and determining the concentration that inhibited cell growth between 50% and 100%.

For data set [3], the system named is YAP-TEAD interaction in co-transfected HEK293 cells. Kind of data set: Cell-based TEAD-GAL4 transactivation assay (luciferase reporter). The conditions noted are these: Homo sapiens, HEK293 co-transfected with TEAD1-Gal4, YAP mutant (S127A, S397A) and reporter, 24 h. The protocol:
Effect of Compounds on the Cell-Based TEAD-GAL4 Transactivation Assay
as §1, with “created.” for “created. HEK293 cells were seeded at 5×10^4 cells/well in 96 well plates (assay plates) in DMEM medium containing 4.5 g/L D-glucose, 10% high inactivated (HI) fetal bovine serum 1% Glutamax, 1% non-essential amino acid and 1% sodium pyruvate and 0.5% penicillin/streptomycin 37° C. in a humidified atmosphere of 8% CO2.”
The cellular response was determined by fitting the concentration response curves using a 3-parameter curve fit equation and determining the concentration that inhibited the luciferase activity by 50%.
(In general: Reporter assays use an easily measured gene product as a stand-in for the process of interest.)

For data set [4], the system named is NCI-H2052 mesothelioma cell line. Kind of data set: Inhibition of malignant mesothelioma tumor cell growth (EdU proliferation). The format is cell-based. The conditions noted are these: NCI-H2052 (NF2 mutated), 1% serum. The protocol:
Inhibition of Malignant Mesothelioma Tumor Cell Growth
The tumor cell growth inhibitory activity of the YAP-TEAD interaction inhibitors was evaluated in NCI-H2052 mesothelioma cell line harboring a NF2 mutation. This cell line was selected based on its mutational status and the ability of a siRNA directed against YAP, TAZ or TEAD1-4 to inhibit cell proliferation. The nuclear localization of YAP at confluence was also taken into account. Based on these observations we were able to classify several “YAP dependent cells” where YAP is clearly nuclear and in which a cell growth inhibition is observed by using siRNA (NCI-H2052, SKOV-3, ACHN, A549) and the “YAP independent cells” where YAP is preferentially located in the cytoplasm and in which no inhibition of cell growth is observed by using a siRNA (SW620, Met-5a). […] After one day growth in the starvation medium, cells were incubated with compounds. The starting concentration was 30 μM and serial dilutions in DMSO and medium were performed until […] to achieve a final DMSO concentration of 0.5%. The cells were then allowed to grow for 3 days, and then, EdU (Invitrogen, Molecular Probe) was added in each well at a final concentration of 10 μM and the cells were returned to the incubator for additional 24 h. Starvation medium was removed and 100 μl of PFA 4% containing Hoechst dye was adding in each well to fix the cells. Plates were then incubated at room temperature for 15 minutes, washed twice with PBS and the cells were permeabilized by adding 100 μl per well of triton-100 containing 0.3% BSA. […] Image acquisition was performed using the ImageXpress Micro and analysed using the MetaXpress software (Molecular Device). Results were expressed as a percent of inhibition (%) of the cell proliferation values obtained with 0.5% DMSO treatment alone. The cellular response was determined by fitting the concentration response curves using a 3 parameter curve fit equation and determining the concentration that inhibited cell growth between 50% and 100%.

T1 sequence (P28347 209-426): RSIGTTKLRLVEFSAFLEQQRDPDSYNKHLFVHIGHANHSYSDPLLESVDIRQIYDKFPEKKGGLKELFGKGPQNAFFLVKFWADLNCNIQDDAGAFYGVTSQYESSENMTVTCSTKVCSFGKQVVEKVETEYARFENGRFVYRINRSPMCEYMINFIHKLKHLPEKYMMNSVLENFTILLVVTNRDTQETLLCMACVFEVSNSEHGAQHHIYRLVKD

The molecule `COc1cc(/C=N/N(C)C2=NS(=O)(=O)c3cc(C(=O)O)ccc32)ccc1O` [Example 34, 3-[[(E)-(4-hydroxy-3-methoxy-phenyl)methyleneamino]-methyl-amino]-1,1-dioxo-1,2-benzothiazole-6-carboxylic acid] showed a melting point of over 260 °C. For the same molecule, in data set [1], the Emax amounted to 97% and the IC50 worked out at 4570 nM.

Consider `COCCN(/N=C/c1ccc(O)c(OC)c1)C1=NS(=O)(=O)c2ccccc21` [Example 7, 4-[(E)-[(1,1-dioxo-1,2-benzothiazol-3-yl)-(2-methoxyethyl)hydrazono]-methyl]-2-methoxy-phenol], for which, in data set [2], the “inhibitory effect in counter screening assay (P53+AgT)” value was “no inhibitory effect was observed”. Also, the “effect on cell proliferation” value in the data set on SW620 cell line is on record as “without showing any effect”. Also, in data set [1], the Emax turned out to be 94% and the IC50 turned out to be 4580 nM. In data set [3], this molecule returned an inhibition at 30 µM of 50 to 75%. In data set [4], the “inhibition of cell proliferation” value is recorded as “inhibited”.

Turning to `COc1ccc2c(c1)C(N(CCCO)/N=C/c1ccc(O)c(OC)c1)=NS2(=O)=O` [Example 14, 4-[(E)-[3-hydroxypropyl-(5-methoxy-1,1-dioxo-1,2-benzothiazol-3-yl) hydrazono]methyl]-2-methoxy-phenol], in data set [1], the Emax was found to be 90% and the IC50 is 1630 nM.

For the molecule `COc1ccc2c(c1)C(N(CCN1CCOCC1)/N=C/c1ccc(O)c(OC)c1)=NS2(=O)=O` [Example 12, 2-methoxy-4-[(E)-[(5-methoxy-1,1-dioxo-1,2-benzothiazol-3-yl)-(2-morpholinoethyl)hydrazono]methyl]phenol], in data set [1], the Emax came to 95% and the IC50 stood at 583 nM.

In turn, `COc1ccc(/C=N/N(C)C2=NS(=O)(=O)c3ccccc32)cc1OC` [N-[(E)-(3,4-dimethoxyphenyl)methyleneamino]-N-methyl-1,1-dioxo-1,2-benzothiazol-3-amine, reference compound] registered an inhibition at 1000 µM in data set [1] (at 1 mM concentration) of 30%.

In the case of `COc1cc(/C=N/N(CC(=O)NCCO)C2=NS(=O)(=O)c3ccccc32)ccc1O` [Example 9, 2-[(1,1-dioxo-1,2-benzothiazol-3-yl)-[(E)-(4-hydroxy-3-methoxy-phenyl)methyleneamino]amino]-N-(2-hydroxyethyl)acetamide], in data set [1], the Emax amounted to 96% and the half-maximal inhibitory concentration (IC50) amounted to 11600 nM.

With `COc1cc(/C=N/N(CCC(=O)O)C2=NS(=O)(=O)c3ccccc32)ccc1O` [Example 8, 3-[(1,1-dioxo-1,2-benzothiazol-3-yl)-[(E)-(4-hydroxy-3-methoxy-phenyl)methyleneamino]amino]propanoic acid], in data set [1], the Emax is 94% and the IC50 came to 1100 nM.

As for `COc1cc(/C=N/N(CCO)C2=NS(=O)(=O)c3c(OC)cc(C)cc32)ccc1O` [Example 29, 4-[(E)-[2-hydroxyethyl-(7-methoxy-5-methy-1,1-dioxo-1,2-benzothiazol-3-yl) hydrazono]methyl]-2-methoxy-phenol], in data set [1], the Emax is 91% and half-maximal inhibition (IC50) required 130 nM.

As for `COc1cc(/C=N/N(CC(F)(F)F)C2=NS(=O)(=O)c3ccccc32)ccc1O` [Example 37, 4-[(E)-[(1,1-dioxo-1,2-benzothiazol-3-yl)-(2,2,2-trifluoroethyl)-hydrazono]methyl]-2-methoxy-phenol], in data set [1], the Emax was 74% and inhibition was half-maximal at 70800 nM (IC50).

For `COc1ccc2c(c1)S(=O)(=O)N=C2N(C)/N=C/c1ccc(O)c(OC)c1` [Example 40, 2-methoxy-4-[(E)-[(6-methoxy-1,1-dioxo-1,2-benzothiazol-3-yl)-methyl hydrazono]methyl]phenol], in data set [1], the Emax amounted to 91% and half-maximal inhibition (IC50) was put at 16200 nM.

Consider `COc1ccc2c(c1)C(N(CCCN1CCOCC1)/N=C/c1ccc(O)c(OC)c1)=NS2(=O)=O` [Example 13, 2-methoxy-4-[(E)-[(5-methoxy-1,1-dioxo-1,2-benzothiazol-3-yl)-(3-morpholinopropyl)hydrazono]methyl]phenol hydrochloride], for which, in data set [1], the Emax stood at 95% and it took 2120 nM to reach half-maximal inhibition (IC50).

Turning to `COc1cc(/C=N/N(C)C2=NS(=O)(=O)c3c(OC)cccc32)ccc1O` [Example 21, 2-methoxy-4-[(E)-[(7-methoxy-1,1-dioxo-1,2-benzothiazol-3-yl)-methyl-hydrazono]methyl]phenol], in data set [1], the Emax amounted to 89% and the IC50 worked out at 123 nM.

For the molecule `COc1cc(/C=N/N(C)C2=NS(=O)(=O)c3c(C)cc(F)cc32)ccc1O` [Example 20, 4-[(E)-[(5-fluoro-7-methyl-1,1-dioxo-1,2-benzothiazol-3-yl)-methyl-hydrazono]methyl]-2-methoxy-phenol], the melting point is over 260 °C. In addition, in data set [1], the Emax was 95% and the half-inhibitory concentration (IC50) stood at 3410 nM.

`COc1cc(/C=N/N(C)C2=NS(=O)(=O)c3ccc(F)cc32)ccc1O` [Example 42, 4-[(E)-[(5-fluoro-1,1-dioxo-1,2-benzothiazol-3-yl)-methyl-hydrazono]-methyl]-2-methoxy-phenol]: in data set [1], the Emax was determined as 84% and the 50% inhibitory concentration (IC50) is 2470 nM.
